What was measured:
[1] = target: T1, human cardiac sodium channel, SCN5A (Homo sapiens, UniProt Q14524); test: Sodium channel patch clamp; format: cell-based; settings: read-out: Na+ channel patch clamp (% Inhib.)
T1 construct: expressed in transfected cells; host or cells: HEK-293
Method: Whole-cell patch-clamp was used to directly measure inward sodium currents in HEK-293 cells expressing the human cardiac sodium channel, SCN5A. The compound was tested at a protein-free aqueous buffer. For determining steady state inhibition, sodium currents were elicited every 5 seconds using the following voltage protocol: cells were held at a potential of −90 mV and stepped to −20 mV for 60 ms. Effects were calculated by measuring inhibition of peak current during the test pulse to −20 mV. Rate-dependence of inhibition was assessed by stimulation at frequencies of 1 Hz and 4 Hz.

CCR-2 [2] = target: T2, CCR-2 (Homo sapiens, UniProt P41597); test: CCR-2 GTP-γS exchange, HT1080 membranes; format: biochemical; settings: 1 nM MCP-1
Method: Each reaction (200 μL) contained 20 mM Na-HEPES, 10 mM MgCl2, 50 mM NaCl, 0.1% BSA (Sigma), 1% DMSO, and 10 μM GDP (pH 7.4). […] Reactions were incubated for 90 minutes hour at room temperature and [^35S]-GTPγS/Gαi complexes were collected on a Millipore MAFC 96 well filter plate. […] Data were analyzed using the ligand binding software from Graphpad Prism 4.

CCR-5 = target: T3, CCR-5 (Homo sapiens, UniProt P51681); test: CCR-5 GTP-γS exchange, CCR-5/HT1080 membranes; format: biochemical; settings: MIP-1α/LD78β ligand
T3 construct: human peripheral T cells was used as a source of CCR-5; endogenous in cells; host or cells: human peripheral T cells from donors pre-screened for high CCR-5 expression
Excerpt: A similar procedure to the CCR-2 GTP-γS exchange procedure set forth above was adopted except that MIP-1α/LD78β was the ligand and the cell line was CCR-5/HT1080. MIP-1α/LD78β was used as the CCR-5 ligand because it provided a bigger signal to noise ratio than MIP-1β.

CCR-2 [3] = target: T2, CCR-2; test: CCR-2 whole blood integrin (CD11b) upregulation; format: cell-based
Method: A CCR-2-dependent CD11b upregulation assay was established with human whole blood. Whole blood (100 μl) was pre-incubated with a concentration range of Example 1 at 37° C. for 10 minutes. […] The reactions were incubated for 30 minutes at 37° C. […] The samples were then incubated for 30 minutes on ice in the dark. […] Data acquisition and analysis were performed using CellQuestPro software. A sequential gating strategy was used to analyze the CD14^high CD11b^+ monocyte population.

CCR-2 [4] = target: T2, CCR-2; test: In vivo receptor occupancy in blood of hCCR-2 KI mice (Gaddum equation); settings: for % Example 1 bound CCR-2 / % free CCR-2 / % mouse MCP-1 bound CCR-2: 48 h
Excerpt: The caveat for this estimation is that only CCR-2 and its major ligand MCP-1 were taken into consideration. The receptor occupancy of a ligand in the presence of a competitive inhibitor is defined by the Gaddum equation: […]
Since Example 1 is a competitive inhibitor of MCP-1 binding to CCR-2, the amounts of both mouse MCP-1/CCR-2 receptor complex and Example 1/CCR-2 receptor complex can be determined using the serum levels of both mouse MCP-1 and protein-unbound Example 1 in plasma. […] The fraction of mouse MCP-1/CCR-2 receptor complexes is determined using the form of the equation described above. To determine the fraction of Example 1/CCR-2 complexes the equation is re-defined as:
[formula] Finally, the amount of CCR-2 free is determined from: [CCR-2]total=[CCR-2]free+[mouse MCP-1/CCR-2]+[Example 1/CCR-2]

human CCR-2 = target: T4, human CCR-2 (Homo sapiens, UniProt P41597); test: Human CCR-2 binding assay with hPBMCs, 125I-human MCP-1 tracer; parameters: hPBMCs were isolated from human leukopak; host or cells: human peripheral blood mononuclear cells
T4 sequence (P41597 1-360 isoform P41597-2): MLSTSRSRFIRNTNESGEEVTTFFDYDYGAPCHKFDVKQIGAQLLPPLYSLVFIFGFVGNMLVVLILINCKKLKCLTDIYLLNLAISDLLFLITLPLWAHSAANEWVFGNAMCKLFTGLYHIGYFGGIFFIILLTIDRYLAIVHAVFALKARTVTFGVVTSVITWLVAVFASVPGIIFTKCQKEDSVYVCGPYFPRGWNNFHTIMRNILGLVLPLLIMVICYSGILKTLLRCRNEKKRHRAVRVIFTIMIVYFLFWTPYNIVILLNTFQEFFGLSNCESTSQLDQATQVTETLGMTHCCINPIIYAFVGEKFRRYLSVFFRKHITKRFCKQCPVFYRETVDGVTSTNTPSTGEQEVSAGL
Method: See also: Yoshimura et al., J. Immunol., 145:292 (1990). […] This was followed by adding 25 μl of Microscint 20 into each well. The plate was sealed and counted on the Trilux for 1 minute. […] All conditions were tested in duplicate.

[5] = 200 mg/kg (different study), oral BID

T2 sequence (P41597 whole entry): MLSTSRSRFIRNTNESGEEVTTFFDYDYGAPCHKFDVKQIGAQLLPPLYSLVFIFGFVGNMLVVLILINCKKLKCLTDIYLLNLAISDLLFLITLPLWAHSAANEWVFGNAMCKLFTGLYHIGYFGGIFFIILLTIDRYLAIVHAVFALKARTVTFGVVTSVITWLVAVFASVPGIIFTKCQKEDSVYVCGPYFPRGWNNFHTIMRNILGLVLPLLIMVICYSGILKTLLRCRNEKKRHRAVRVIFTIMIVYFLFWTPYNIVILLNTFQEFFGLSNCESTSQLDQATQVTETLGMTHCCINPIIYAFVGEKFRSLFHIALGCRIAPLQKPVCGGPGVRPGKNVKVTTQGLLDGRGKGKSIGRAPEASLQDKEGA
T1 sequence (Q14524 whole entry): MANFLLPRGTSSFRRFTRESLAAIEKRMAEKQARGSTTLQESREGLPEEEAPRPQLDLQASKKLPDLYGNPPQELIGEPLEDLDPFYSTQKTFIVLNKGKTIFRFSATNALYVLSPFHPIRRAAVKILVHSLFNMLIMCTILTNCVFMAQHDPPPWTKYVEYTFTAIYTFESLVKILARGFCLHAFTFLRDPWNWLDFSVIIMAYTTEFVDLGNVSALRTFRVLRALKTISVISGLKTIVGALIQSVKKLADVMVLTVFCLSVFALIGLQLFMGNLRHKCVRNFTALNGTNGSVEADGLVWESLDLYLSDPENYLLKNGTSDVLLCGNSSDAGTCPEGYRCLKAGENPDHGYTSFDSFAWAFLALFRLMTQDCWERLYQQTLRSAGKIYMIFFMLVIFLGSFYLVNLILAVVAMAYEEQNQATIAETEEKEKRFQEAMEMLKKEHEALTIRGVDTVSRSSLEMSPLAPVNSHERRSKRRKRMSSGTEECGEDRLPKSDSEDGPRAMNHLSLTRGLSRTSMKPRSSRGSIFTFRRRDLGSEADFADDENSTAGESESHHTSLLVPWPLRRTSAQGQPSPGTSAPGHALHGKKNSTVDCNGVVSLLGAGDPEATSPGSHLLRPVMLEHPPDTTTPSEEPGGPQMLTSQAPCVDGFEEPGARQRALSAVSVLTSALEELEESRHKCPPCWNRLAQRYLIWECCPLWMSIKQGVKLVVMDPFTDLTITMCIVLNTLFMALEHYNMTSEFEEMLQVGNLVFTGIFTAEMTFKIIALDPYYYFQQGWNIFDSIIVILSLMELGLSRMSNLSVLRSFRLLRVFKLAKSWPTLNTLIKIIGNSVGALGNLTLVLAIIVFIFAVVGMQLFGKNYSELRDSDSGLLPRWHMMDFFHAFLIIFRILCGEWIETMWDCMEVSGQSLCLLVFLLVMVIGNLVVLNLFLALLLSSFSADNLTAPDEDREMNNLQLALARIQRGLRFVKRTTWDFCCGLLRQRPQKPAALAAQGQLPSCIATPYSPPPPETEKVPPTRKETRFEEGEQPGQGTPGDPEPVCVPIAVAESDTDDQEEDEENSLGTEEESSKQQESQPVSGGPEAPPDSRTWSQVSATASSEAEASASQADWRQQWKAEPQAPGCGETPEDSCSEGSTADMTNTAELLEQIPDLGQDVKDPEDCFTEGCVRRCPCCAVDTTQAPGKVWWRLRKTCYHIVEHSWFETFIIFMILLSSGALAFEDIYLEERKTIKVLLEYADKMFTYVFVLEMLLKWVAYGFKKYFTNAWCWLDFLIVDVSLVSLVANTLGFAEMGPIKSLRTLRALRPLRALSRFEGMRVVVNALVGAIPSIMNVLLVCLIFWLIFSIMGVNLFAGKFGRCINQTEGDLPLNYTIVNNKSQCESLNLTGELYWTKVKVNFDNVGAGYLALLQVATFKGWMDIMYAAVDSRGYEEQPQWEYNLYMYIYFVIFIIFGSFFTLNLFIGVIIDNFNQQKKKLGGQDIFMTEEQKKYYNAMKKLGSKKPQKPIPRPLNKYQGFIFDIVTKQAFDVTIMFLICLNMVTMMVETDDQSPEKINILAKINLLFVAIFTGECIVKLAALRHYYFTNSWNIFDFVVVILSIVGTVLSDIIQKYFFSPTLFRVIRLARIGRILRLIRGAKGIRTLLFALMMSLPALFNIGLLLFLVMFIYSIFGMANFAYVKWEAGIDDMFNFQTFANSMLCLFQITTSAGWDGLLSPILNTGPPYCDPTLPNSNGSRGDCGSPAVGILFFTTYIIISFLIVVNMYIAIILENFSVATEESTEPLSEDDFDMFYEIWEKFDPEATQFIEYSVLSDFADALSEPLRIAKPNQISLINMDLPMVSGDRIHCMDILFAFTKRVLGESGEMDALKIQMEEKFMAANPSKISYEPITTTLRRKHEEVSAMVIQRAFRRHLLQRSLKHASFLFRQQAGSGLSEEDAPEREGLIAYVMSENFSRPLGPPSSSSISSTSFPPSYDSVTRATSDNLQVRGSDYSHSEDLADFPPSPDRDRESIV
T3 sequence (P51681 whole entry): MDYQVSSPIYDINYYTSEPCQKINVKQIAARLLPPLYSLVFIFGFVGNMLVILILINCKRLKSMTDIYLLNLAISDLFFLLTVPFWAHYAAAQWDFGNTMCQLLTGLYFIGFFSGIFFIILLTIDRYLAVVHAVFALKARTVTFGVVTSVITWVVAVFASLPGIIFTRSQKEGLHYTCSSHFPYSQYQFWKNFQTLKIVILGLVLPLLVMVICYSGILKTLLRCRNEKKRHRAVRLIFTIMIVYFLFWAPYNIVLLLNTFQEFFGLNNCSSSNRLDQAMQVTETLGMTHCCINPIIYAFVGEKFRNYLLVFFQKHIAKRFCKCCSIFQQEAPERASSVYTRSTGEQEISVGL

In the case of CC(=O)N[C@@H]1C[C@H](NC(C)(C)C)CC[C@@H]1N1CC[C@H](Nc2ncnc3cc(C(C)(C)C)nn23)C1=O [Example 1, N-((1R,2 S,5R)-5-(tert-Butylamino)-2-((S)-3-(7-tert-butylpyrazolo[1,5-a][1,3,5]triazin-4-ylamino)-2-oxopyrrolidin-1-yl)cyclohexyl)acetamide], the inhibition at 10000 nM ([1]; 10,000 nM) is reported as 15 to 20%, the inhibition at 30000 nM ([1]; 30,000 nM) is reported as 13 to 16% and the IC50 (CCR-2 [2]) is reported as 3.5 ± 1.9 nM. For the same molecule, the IC50 (CCR-5) was 6.1 ± 1.2 nM, the “activity against CCR-2 versus CCR-5 (Table 5)” value (CCR-2 [3]; comparison of CCR-2 and CCR-5 CD11b IC50) was “equipotent against CCR-2 and CCR-5” and the IC50 (CCR-2 [3]; human whole blood, MCP-1 10 nM) was 4.8 nM. For the same molecule, the “% Example 1 bound CCR-2” value (CCR-2 [4]; 10 mg/kg oral BID) was 48.15%, the “% free CCR-2” value (CCR-2 [4]; 10 mg/kg oral BID) was 50.68% and the “% mouse MCP-1 bound CCR-2” value (CCR-2 [4]; 10 mg/kg oral BID) was 1.17%. The “% Example 1 bound CCR-2” value (CCR-2 [4]; 50 mg/kg oral BID) was 88.74%, the “% free CCR-2” value (CCR-2 [4]; 50 mg/kg oral BID) was 10.69% and the “% mouse MCP-1 bound CCR-2” value (CCR-2 [4]; 50 mg/kg oral BID) was 0.56%. The “% Example 1 bound CCR-2” value (CCR-2 [4]; 160 mg/kg oral BID) was 96.72%, the “% free CCR-2” value (CCR-2 [4]; 160 mg/kg oral BID) was 3.12% and the “% mouse MCP-1 bound CCR-2” value (CCR-2 [4]; 160 mg/kg oral BID) was 0.16%. The “% Example 1 bound CCR-2” value (CCR-2 [4]; [5]) was 98.45%, the “% free CCR-2” value (CCR-2 [4]; [5]) was 1.44% and the “% mouse MCP-1 bound CCR-2” value (CCR-2 [4]; [5]) was 0.11%. The “CCR-2 occupancy at maximal inhibition of monocyte/macrophage infiltration” value (CCR-2 [4]; hCCR-2 KI mouse TG peritonitis) was 98.5%, the Ki (human CCR-2; average, read-out: average Ki for binding to hCCR-2) was 2 nM and the IC50 (human CCR-2; hPBMCs, 125I-human MCP-1) was 6.2 ± 2.7 nM.

Reference: patent publication US8618101B2, “N-((1R,2S,5R)-5-(tert-butylamino)-2-((S)-3-(7-tert-butylpyrazolo[1,5-a][1,3,5]triazin-4-ylamino)-2-oxopyrrolidin-1-yl)cyclohexyl)acetamide, a dual modulator of chemokine receptor activity, crystalline forms and processes” (Bristol-Myers Squibb Company, priority 2009, dated 2013)
